Data taken from PubChem BioAssay (NCI).
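96-well plates; 48 h exposure; 5 concentrations. Endpoints by linear interpolation between flanking doses. Not reached: highest tested concentration assigned. The concentration for full growth arrest is given as TGI.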

Assays:
Assay in all cases: NCI-60 cell line screen, 48 h
[1] = test system: DMS 114 small cell lung
[2] = test system: XF 498 CNS
[3] = test system: NCI-H522 lung
[4] = test system: LXFL 529 NSCLC
[5] = test system: NCI-H460 lung
[6] = test system: SK-MEL-28 melanoma
[7] = test system: SK-OV-3 ovarian
[8] = test system: SK-MEL-2 melanoma
[9] = test system: HCT-116 colon
[10] = test system: MDA-N
[11] = test system: HS 578T breast
[12] = test system: PC-3 prostate

Row | Structure (SMILES) | TGI [1] | TGI [2] | TGI [3] | TGI [4] | TGI [5] | TGI [6] | TGI [7] | TGI [8] | TGI [9] | TGI [10] | TGI [11] | TGI [12]
1 | CO/C(=N\N=C\c1ccc(Cl)cc1)c1ccncc1 | > 100 µM | > 100 µM | > 100 µM | > 100 µM | > 100 µM | > 100 µM | > 100 µM | > 100 µM | > 100 µM | – | – | –
2 | COC(=O)C1=C(C)N2CCCOC2(C)C(C(=O)OC)C1c1cccc(Cl)c1 (configuration not stated) | 60.5 µM | – | – | 74.6 µM | 61.3 µM | > 100 µM | – | 36.6 µM | > 100 µM | – | – | –
3 | CN(C)N=Nc1ccc([N+](=O)[O-])cc1C(N)=O | > 100 µM | > 100 µM | > 100 µM | – | > 100 µM | > 100 µM | > 100 µM | > 100 µM | > 100 µM | – | – | –
4 | CN(Cc1c2ccccc2cc2ccccc12)S(=O)(=O)c1ccc(-c2c3nc(c(-c4ccc(S(=O)(=O)N(C)Cc5c6ccccc6cc6ccccc56)cc4)c4ccc([nH]4)c(-c4ccc(S(=O)(=O)N(C)Cc5c6ccccc6cc6ccccc56)cc4)c4nc(c(-c5ccc(S(=O)(=O)N(C)Cc6c7ccccc7cc7ccccc67)cc5)c5ccc2[nH]5)C=C4)C=C3)cc1 | – | – | > 100 µM | – | > 100 µM | > 100 µM | > 100 µM | > 100 µM | > 100 µM | > 100 µM | > 100 µM | > 100 µM
5 | CCCC1NC(C#N)(C#N)C(CCC)NC1(C#N)C#N (configuration not stated) | – | – | 1.51 µM | – | > 100 µM | > 100 µM | > 100 µM | > 100 µM | > 37.1 µM | > 55 µM | 22.6 µM | > 88.7 µM
6 | [O-][n+]1onc2c3nn(-c4ccccc4)nc3ccc21 | – | – | > 100 µM | – | > 100 µM | > 100 µM | > 100 µM | > 100 µM | > 100 µM | > 100 µM | > 88.6 µM | > 100 µM
7 | O=C1COC(c2ccccc2O)=NN1CCCN1CCCC1 | – | – | > 100 µM | – | > 100 µM | > 100 µM | > 100 µM | > 100 µM | > 100 µM | > 100 µM | > 100 µM | > 100 µM
8 | Cc1c(-c2ccccc2)c(C#N)c2nnn(-c3ccccc3)c(=O)n12 | – | – | > 100 µM | – | > 100 µM | > 100 µM | > 100 µM | > 100 µM | > 100 µM | > 100 µM | > 100 µM | > 100 µM
9 | O=C(NCC1Nc2ccncc2S(=O)(=O)N1)c1ccc(Br)cc1 (configuration not stated) | – | – | > 100 µM | – | > 100 µM | > 100 µM | > 100 µM | 57.4 µM | > 100 µM | 58.6 µM | 83.1 µM | 51.4 µM
10 | O=C1NN=C(c2ccc(Cl)cc2)CC1C1C(=O)N(c2ccccc2)N=C1c1ccccc1 (configuration not stated) | – | – | 65.2 µM | – | 80.4 µM | > 100 µM | > 100 µM | 78.7 µM | 44.8 µM | > 100 µM | 93.9 µM | 72.3 µM
11 | CCCSc1cc(Cl)c(C)cc1S(=O)(=O)n1ccnc1OCCCN(C)C | – | – | > 100 µM | – | > 100 µM | > 100 µM | > 100 µM | > 100 µM | > 100 µM | > 100 µM | > 100 µM | > 100 µM
12 | COc1cc(C2c3cc4c(cc3C(O)C3CCC(=O)N23)OCO4)cc(OC)c1OC (configuration not stated) | – | – | 89.9 µM | – | > 100 µM | > 100 µM | > 100 µM | > 100 µM | > 100 µM | 38.2 µM | > 100 µM | > 100 µM
13 | C=Nc1ccc([N+](=O)[O-])cc1 | > 100 µM | > 100 µM | > 100 µM | > 100 µM | > 100 µM | > 100 µM | > 100 µM | > 100 µM | > 100 µM | – | – | –
14 | CC1(C)C2CCC1(CS(=O)(=O)Nc1ccccc1)C(=O)C2 (configuration not stated) | – | – | > 100 µM | – | > 100 µM | > 100 µM | > 100 µM | > 100 µM | > 100 µM | > 100 µM | > 100 µM | > 100 µM
